Data taken from US10406150B2, “Method for treatment of primary hormone resistant endometrial and breast cancers” (Lipoxen Technologies Limited, priority 2014, dated 2019).

Test system: secondary PR negative Ishikawa cells
Test: Model of secondary PR-negative endometrial cancer (progestin-resistant Ishikawa xenograft)
Type: in vivo, mice
Conditions: day 7; MPA 250 mg/kg/day i.p. 5 days per week, SC 0.3 mg/kg i.m. each alternate day; mean ± SEM
Method: When the surviving cells had grown to a high density but were still less than confluent, cells were subcloned using 0.02% EDTA and 0.25% trypsin prepared in Hanks' balanced salt solution. MPA-containing medium was replaced every 2-3 days. Cells proliferating in 10 μM MPA with the same doubling time as the initial Ishikawa cells proliferating in the medium without MPA, were considered as secondary progestin-resistant Ishikawa cells.
2×10^6 secondary PR negative Ishikawa cells were inoculated into the flanks of MF-1 female nude mice in 100 μl Matrigel.
1) Vehicle control group: vehicle only, −0.9% sodium chloride for injection i.m each alternate day and i.p. for 5 days per week.
2) MPA only control group: medroxyprogesterone acetate (MPA) (250 mg/kg/day) i.p. for 5 days per week.
Tumors were measured with vernier calipers weekly. Tumor volumes (mm^3) were calculated using the modified ellipsoid formula: (length (mm)×width (mm)^2)/2. The ratio (percentage) of “Tumor volume at day n” to “tumor volume at day “0” was calculated for each animal. At the end of the experiments (day 35) animals were euthanized.

SMILES: CC(=O)O[C@]1(C(C)=O)CC[C@H]2[C@@H]3C[C@H](C)C4=CC(=O)CC[C@]4(C)[C@H]3CC[C@@]21C [MPA, medroxyprogesterone acetate]
- Tumor volume at day n/tumor volume at day “0”: 170 ± 19%
